# US20060134206A1, “Oral compositions for treatment of diseases” (priority 2003, published 2006)
# How the values were obtained:
# [1] = system: human vascular ATP-dependent K+ channels; conditions: cited from earlier work
# [2] = allows once daily treatment; cited from earlier work
# [3] = cited from earlier work
# [4] = oral, conventional metformin; cited from earlier work
# [5] = In-house study: metformin co-administered with propantheline; format: in vivo; conditions: compared with metformin alone
# type 2 diabetes patients = conditions: overweight type 2 diabetes patients assigned metformin; microvascular and macrovascular; cited from earlier work
# people with diabetes = conditions: versus placebo, cited from earlier work
smiles,measurement,setting,value
CCC1=C(C)CN(C(=O)NCCc2ccc(S(=O)(=O)NC(=O)N[C@H]3CC[C@H](C)CC3)cc2)C1=O [glimepiride],effect on human vascular ATP-dependent K+ channels,[1],no effect
same,long life,[2],9 h
CN(C)C(=N)N=C(N)N [metformin],drug in plasma,[3]; drug perfused into the colon,not detectable
same,"area under the plasma concentration-time profile, jejunum versus ileum perfusion",[3]; perfusion into jejunum compared with ileum,2.5 fold
same,gastrointestinal absorption apparently complete (time after ingestion),[4],≤ 6 h
same,AUC,[5],increased
same,Tmax,[5],delayed
same,time period over which therapeutically beneficial plasma levels were maintained,[5],extended
same,relative risk reduction of developing any diabetes related end points,type 2 diabetes patients,32%
CCOC(=O)[C@H](CCc1ccccc1)N[C@@H](C)C(=O)N1[C@H](C(=O)O)C[C@@H]2CCC[C@@H]21 [ramipril],"lowering of relative risk of a major cardiovascular event (myocardial infarction, stroke or cardiovascular death)","people with diabetes; 3,577 people with diabetes, 4.5 years",25%
same,lowering of absolute risk of a major cardiovascular event,"people with diabetes; 3,577 people with diabetes",4.5%
same,absolute risk reduction of overt nephropathy,people with diabetes; people with diabetes,2.0%
same,reduction of relative risk of overt nephropathy,people with diabetes; people with diabetes,24%
